Patent US20230054194A1, “Methods of Treating Cancer” (ARIAGEN, INC., priority 2018, published 2023)

Columns and labels:
[1] = system: EMT-6; experiment: EMT-6 subcutaneous syngeneic breast cancer mouse model (Study 2 and Study 12), tumor growth inhibition; format: in vivo, mouse (BALB/C); details: EMT-6 syngeneic breast cancer model
Procedure: (§1) In this example, the in vivo anti-tumor efficacy of ARI-001, ARI-002, ARI-003, and ARI-143 and their combinations with an anti-PD-1 antibody was evaluated using a panel of twelve subcutaneous syngeneic mouse tumor models.
(§2) Eleven subcutaneous syngeneic mouse tumor models were generated by innoculating female BALB/C or C57BL/6 mice with cancer cells at their right lower or right front flank followed by randomization as detailed in Table 4 below.
(§3) A solution of a rat monoclonal anti-mouse PD-1 antibody (isotype IgG2a, κ) at a concentration of 6.61 mg/ml was obtained from BioXcell (InVivoMAb anti-mouse PD-1 (CD279), Clone RMP1-14, Cat #BE0146)) and store at 4° C. The antibody solution was diluted with PBS to obtain a 1 mg/ml dosing solution.
(§4) ARI-001, ARI-002, and ARI-003 powder was stored at −20° C. The powder of each compound was dissolved in DMSO to obtain dosing solutions at 106.7, 80, and 53.33 mg/ml for administration to mice at 160, 120, and 80 mg/kg, respectively. ARI-143 was similarly prepared.
(§5) Twelve studies using the twelve subcutaneous syngeneic mouse tumor models were performed. In each study, 80 mice were enrolled and randomly allocated to eight different study groups, with 10 mice in each study group. The mean tumor size at randomization was approximately 80-120 mm^3 (around 100 mm^3). Randomization was performed based on “Matched distribution” randomization method (StudyDirector™ software, version 3.1.399.19). […] All the drugs and vehicle controls were injected to the mice intraperitoneally.
(§6) After tumor cell inoculation, the animals were checked daily for morbidity and mortality. At the time of routine monitoring, the animals were checked for any effects of tumor growth and treatments on behavior such as mobility, food and water consumption, body weight gain/loss (body weights were measured twice or three times per week after randomization), and any other abnormalities. Mortality and observed clinical signs were recorded for individual animals. Tumor volumes were measured twice or three times weekly after randomization in two dimensions using a caliper, and the volume was expressed in mm^3 using the formula: […]
(§7) where V is tumor volume, L is tumor length (the longest tumor dimension) and W is tumor width (the longest tumor dimension perpendicular to L).
(§8) The study was terminated when the mean tumor volume (MTV) in the vehicle group reached a value of 2,000 mm^3. Tumor growth inhibition (TGI) is an indication of antitumor activity, and expressed as: […]
(§9) where T and C are the MTV (or weight) of the treated and control groups, respectively, on a given day. Statistical analysis of the difference in MTV among the groups was conducted using the data collected on the day when the MTV of the vehicle group reached the humane endpoints, so that TGI could be derived for all or most mice enrolled in the study.
(§10) Statistical analysis of differences in MTV among the groups was conducted by Independent-Samples T Test using the data collected. All data were analyzed with SPSS (Statistical Product and Service Solutions) version 18.0 (IBM, Armonk, N.Y., U.S.). P-values were rounded to three decimal places, with the exception that raw P-values less than 0.001 were stated as P<0.001. All tests were two-sided. P<0.05 was considered to be statistically significant.
FIG. 61 is a graph showing the mean tumor volume on different study days in the study groups as indicated according to Study 2 (EMT-6). The study end day was Day 27.

[2] = system: RM-1; experiment: RM-1 subcutaneous syngeneic prostate cancer mouse model (Study 7), tumor growth inhibition; format: in vivo, mouse (C57BL/6); details: RM-1 model, study end day Day 19
Procedure: as §1, §2, §3, §4, §5, §6, §7, §8, §9, §10
FIG. 66 is a graph showing the mean tumor volume on different study days in the study groups as indicated according to Study 7 (RM-1). The study end day was Day 19.

[3] = system: B16F10; experiment: B16F10 subcutaneous syngeneic melanoma mouse model (Study 10), tumor growth inhibition; format: in vivo, mouse (C57BL/6)
Procedure: as §1, §2, §3, §4, §5, §6, §7, §8, §9, §10
FIG. 69 is a graph showing the mean tumor volume on different study days in the study groups as indicated according to Study 10 (B16F10). The study end day was Day 19.

[4] = system: CT26; experiment: CT-26 subcutaneous syngeneic colon cancer mouse model (Study 4), tumor growth inhibition; format: in vivo, mouse (BALB/C); details: CT-26 model, i.p.; ARI compounds 160 mg/kg QD × 15 doses, Anti-PD-1 10 BIW × 5 doses; study end day Day 23
Procedure: as §1, §2, §3, §4, §5, §6, §7, §8, §9, §10
FIG. 63 is a graph showing the mean tumor volume on different study days in the study groups as indicated according to Study 4 (CT-26). The study end day was Day 23.

[5] = system: A20; experiment: A20 subcutaneous syngeneic lymphoma mouse model (Study 5), tumor growth inhibition; format: in vivo, mouse (BALB/C); details: A20 model, i.p.; ARI compounds 160 mg/kg QD × 14 doses, Anti-PD-1 10 BIW × 4 doses; study end day Day 26
Procedure: as §1, §2, §3, §4, §5, §6, §7, §8, §9, §10
FIG. 64 is a graph showing the mean tumor volume on different study days in the study groups as indicated according to Study 5 (A20). The study end day was Day 26.

[6] = system: H22; experiment: H22 subcutaneous syngeneic liver cancer mouse model (Study 11), tumor growth inhibition; format: in vivo, mouse (BALB/C)
Procedure: as §1, §2, §3, §4, §5, §6, §7, §8, §9, §10
FIG. 70 is a graph showing the mean tumor volume on different study days in the study groups as indicated according to Study 11 (H22). The study end day was Day 18.

[7] = system: Pan02; experiment: Pan02 subcutaneous syngeneic pancreatic cancer mouse model (Study 3), tumor growth inhibition; format: in vivo, mouse (C57BL/6)
Procedure: as §1, §2, §3, §4, §5, §6, §7, §8, §9, §10
FIG. 62 is a graph showing the mean tumor volume on different study days in the study groups as indicated according to Study 3 (Pan02). The study end day was Day 32.

[8] = system: Renca; experiment: Renca subcutaneous syngeneic kidney cancer mouse model (Study 8), tumor growth inhibition; format: in vivo, mouse (BALB/C)
Procedure: as §1, §2, §3, §4, §5, §6, §7, §8, §9, §10
FIG. 67 is a graph showing the mean tumor volume on different study days in the study groups as indicated according to Study 8 (Renca). The study end day was Day 28.

[9] = system: Hepa1-6; experiment: Hepa1-6 subcutaneous syngeneic liver cancer mouse model (Study 9), tumor growth inhibition; format: in vivo, mouse (C57BL/6)
Procedure: as §1, §2, §3, §4, §5, §6, §7, §8, §9, §10
FIG. 68 is a graph showing the mean tumor volume on different study days in the study groups as indicated according to Study 9 (Hepal-6). The study end day was Day 26.

[10] = system: LL/2; experiment: LL/2 subcutaneous syngeneic lung cancer mouse model (Study 6), tumor growth inhibition; format: in vivo, mouse (C57BL/6)
Procedure: as §1, §2, §3, §4, §5, §6, §7, §8, §9, §10
FIG. 65 is a graph showing the mean tumor volume on different study days in the study groups as indicated according to Study 6 (LL/2). The study end day was Day 32.

[11] = system: MC38; experiment: MC38 subcutaneous syngeneic colon cancer mouse model (Study 1), tumor growth inhibition; format: in vivo, mouse (C57BL/6)
Procedure: as §1, §2, §3, §4, §5, §6, §7, §8, §9, §10
FIG. 60 is a graph showing the mean tumor volume on different study days in the study groups as indicated according to Study 1 (MC38). The study end day was Day 26.

[12] = Pan02 model, i.p., ARI compounds 160 mg/kg QD × 28 doses, Anti-PD-1 10 BIW × 8 doses, study end day Day 32
[13] = Pan02 syngeneic pancreatic cancer model
[14] = MC38 model, i.p., ARI compounds 160 mg/kg QD × 17 doses, Anti-PD-1 10 BIW × 5 doses, study end day Day 26

SMILES: NC(=O)c1csc(C(=O)c2c[nH]c3ccccc23)n1 [ARI-003]
- anti-tumor potency of anti-PD-1 antibody combined with the compound, compared to the antibody alone or the vehicle [1]: statistically significant increase
- Tumor size ([2]; Mean ± SEM, in mm³): 1703.05 ± 39.79
- TGI(%) [2]: 43%
- Tumor size ([3]; B16F10 model, Mean ± SEM, study end day Day 19, in mm³): 2234.18 ± 248.14
- TGI(%) ([3]; B16F10 model, study end day Day 19): 24%
- anti-tumor potency of anti-PD-1 antibody combined with the compound, compared to the antibody alone or the vehicle ([3]; B16F10 syngeneic melanoma model): statistically significant increase
- TGI(%) [4]: 64%
- Tumor size (Mean ± SEM) [4]: 836.51 ± 110.61 mm^3
- TGI(%) [5]: 54%
- Tumor size (Mean ± SEM) [5]: 1206.83 ± 121.06 mm^3
- Tumor size ([6]; H22 model, Mean ± SEM, study end day Day 18, in mm³): 1547.54 ± 100.51
- TGI(%) ([6]; H22 model, study end day Day 18): 31%
- anti-tumor potency of the compound combined with anti-PD-1 antibody, compared to being used alone ([6]; H22 syngeneic liver cancer model): statistically significant increase
- TGI(%) [7, 12]: 62%
- Tumor size (Mean ± SEM) [7, 12]: 340.16 ± 49.76 mm^3
- anti-tumor potency of anti-PD-1 antibody combined with the compound, compared to the antibody alone [7, 13]: statistically significant increase
- anti-tumor potency of the compound combined with anti-PD-1 antibody, compared to being used alone [7, 13]: statistically significant increase
- Tumor size ([8]; Renca model, Mean ± SEM, study end day Day 28, in mm³): 1240.04 ± 90.09
- TGI(%) ([8]; Renca model, study end day Day 28): 42%
- anti-tumor potency of anti-PD-1 antibody combined with the compound, compared to the antibody alone ([8]; Renca syngeneic kidney cancer model): statistically significant increase
- Tumor size ([9]; Hepa1-6 model, Mean ± SEM, study end day Day 26, in mm³): 1251.31 ± 158.72
- TGI(%) ([9]; Hepa1-6 model, study end day Day 26): 23%
- anti-tumor potency of the compound combined with anti-PD-1 antibody, compared to being used alone ([9]; Hepa1-6 syngeneic liver cancer model): statistically significant increase
- Tumor size ([10]; LL/2 model, Mean ± SEM, study end day Day 32, in mm³): 839.79 ± 99.43
- TGI(%) ([10]; LL/2 model, study end day Day 32): 62%
- anti-tumor potency of anti-PD-1 antibody combined with the compound, compared to the antibody alone or the vehicle ([10]; LL/2 syngeneic lung cancer model): statistically significant increase
- TGI(%) [11, 14]: 35%
- Tumor size (Mean ± SEM) [11, 14]: 1691.11 ± 123.57 mm^3
- anti-tumor potency of anti-PD-1 antibody combined with the compound, compared to the antibody alone or the vehicle ([11]; MC38 syngeneic colon cancer model): statistically significant increase
